Experimental data reported in PMC2916072 (Archives of biochemistry and biophysics, 2010).

Molecular target: Met receptor tyrosine kinase (Homo sapiens, UniProt P08581)
Experiment: phospho-Met
Format: cell-based

Sequence of Met receptor tyrosine kinase (P08581 25-307): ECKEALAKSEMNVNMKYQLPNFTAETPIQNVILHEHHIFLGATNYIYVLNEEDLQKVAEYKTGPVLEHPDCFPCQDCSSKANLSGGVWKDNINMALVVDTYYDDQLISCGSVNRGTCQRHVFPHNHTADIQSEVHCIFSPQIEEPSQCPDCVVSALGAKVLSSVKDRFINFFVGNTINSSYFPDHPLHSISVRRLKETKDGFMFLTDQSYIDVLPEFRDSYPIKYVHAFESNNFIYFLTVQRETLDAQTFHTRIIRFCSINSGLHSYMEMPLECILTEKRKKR
Sequence of Met receptor tyrosine kinase (P08581 308-1390): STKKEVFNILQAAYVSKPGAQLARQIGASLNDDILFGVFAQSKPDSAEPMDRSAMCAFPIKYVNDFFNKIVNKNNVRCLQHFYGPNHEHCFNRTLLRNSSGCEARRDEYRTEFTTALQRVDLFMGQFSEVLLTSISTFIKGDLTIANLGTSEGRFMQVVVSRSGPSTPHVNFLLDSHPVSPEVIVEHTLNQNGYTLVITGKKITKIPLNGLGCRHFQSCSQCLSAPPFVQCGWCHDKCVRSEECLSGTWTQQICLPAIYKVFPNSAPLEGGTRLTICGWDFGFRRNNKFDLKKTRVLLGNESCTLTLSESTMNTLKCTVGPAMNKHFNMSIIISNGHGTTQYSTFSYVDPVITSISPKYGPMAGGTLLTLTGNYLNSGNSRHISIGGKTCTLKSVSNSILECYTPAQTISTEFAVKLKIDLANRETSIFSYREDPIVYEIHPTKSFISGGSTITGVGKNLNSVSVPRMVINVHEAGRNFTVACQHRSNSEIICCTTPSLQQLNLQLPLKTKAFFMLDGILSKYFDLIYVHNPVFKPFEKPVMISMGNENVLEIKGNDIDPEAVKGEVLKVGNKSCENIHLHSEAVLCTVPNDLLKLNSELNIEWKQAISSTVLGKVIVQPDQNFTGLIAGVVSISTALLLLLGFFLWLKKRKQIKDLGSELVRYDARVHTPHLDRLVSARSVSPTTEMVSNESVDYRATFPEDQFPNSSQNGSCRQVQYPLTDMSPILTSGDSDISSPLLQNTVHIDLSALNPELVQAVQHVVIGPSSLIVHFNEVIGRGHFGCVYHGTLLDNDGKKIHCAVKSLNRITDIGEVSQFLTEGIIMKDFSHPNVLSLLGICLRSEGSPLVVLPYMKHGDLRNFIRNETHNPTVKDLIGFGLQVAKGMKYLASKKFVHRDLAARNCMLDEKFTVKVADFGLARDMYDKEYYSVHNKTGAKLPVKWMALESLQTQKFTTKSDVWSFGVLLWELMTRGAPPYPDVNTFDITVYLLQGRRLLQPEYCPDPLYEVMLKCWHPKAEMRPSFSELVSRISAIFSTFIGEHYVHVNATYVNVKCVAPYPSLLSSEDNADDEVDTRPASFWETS

`Cc1[nH]c(/C=C2\C(=O)Nc3ccc(S(=O)(=O)N(C)c4cccc(Cl)c4)cc32)c(C)c1C(=O)N1CCN(C)CC1` [SU11274, (3Z)-N-(3-chlorophenyl)-3-({3,5-dimethyl-4-[(4-methylpiperazin-1-yl)carbonyl]-1H-pyrrol-2-yl}methylene)-N-methyl-2-oxoindoline-5-sulfonamide] was tested, and the IC50 was 50 nM.
